As usually defined, the IC50 is the concentration at which inhibition is half-maximal. Usually inhibition stands for how much of the control response was suppressed.

This is an account of results in patent publication US6534491B2, “Preparation and use of ortho-sulfonamido bicyclic heteroaryl hydroxamic acids as matrix metalloproteinase and tace inhibitors” (priority 1996, dated 2003).

The target in one experiment is MMP-9 (Homo sapiens, UniProt P14780). The experiment is described as follows: MMP-9 inhibition (thiopeptide or fluorescent peptide substrate). The conditions noted are these: for IC50: read-out: MMP-9 IC50; for inhibition at 1 µM: read-out: MMP-9 % inhibition, at 1 μM concentration. Type of experiment: biochemical.
Experiment [1] concerns the target T1, MMP-13 (Homo sapiens, UniProt P45452). The experiment is described as follows: MMP-13 inhibition (thiopeptide or fluorescent peptide substrate). Type of experiment: biochemical. The conditions noted are these: for inhibition at 1 µM: read-out: MMP-13 % inhibition, at 1 μM concentration.
Description: (§1) The enzyme activity is measured by the rate of the color increase. The thiopeptide substrate is made up fresh as a 20 mM stock in 100% DMSO and the DTNB is dissolved in 100% DMSO as a 100 mM stock and stored in the dark at room temperature. Both the substrate and DTNB are diluted together to 1 mM with substrate buffer (50 mM HEPES pH 7.5, 5 mM CaCl2) before use. The stock of enzyme is diluted with buffer (50 mM HEPES, pH 7.5, 5 mM CaCl2, 0.02% Brij) to the desired final concentration.
(§2) Alternatively, a fluorescent peptide substrate is used. In this test procedure, the peptide substrate contains a fluorescent group and a quenching group. Upon cleavage of the substrate by an MMP, the fluorescence that is generated is quantitated on the fluorescence plate reader. The assay is run in HCBC assay buffer (50 mM HEPES, pH 7.0, 5 mM Ca^+2, 0.02% Brij, 0.5% Cysteine), with human recombinant MMP-1, MMP-9, or MMP-13. The substrate is dissolved in methanol and stored frozen in 1 mM aliquots. For the assay, substrate and enzymes are diluted in HCBC buffer to the desired concentrations. Compounds are added to the 96 well plate containing enzyme and the reaction is started by the addition of substrate.
(§3) For either the thiopeptide or fluorescent peptide test procedures, the slope of the line is calculated and represents the reaction rate. The linearity of the reaction rate is confirmed (r^2>0.85). The mean (x±sem) of the control rate is calculated and compared for statistical significance (p<0.05) with drug-treated rates using Dunnett's multiple comparison test.
The next experiment addresses T2, MMP-1 (Homo sapiens, UniProt P03956).
T2 sequence (P03956 100-469): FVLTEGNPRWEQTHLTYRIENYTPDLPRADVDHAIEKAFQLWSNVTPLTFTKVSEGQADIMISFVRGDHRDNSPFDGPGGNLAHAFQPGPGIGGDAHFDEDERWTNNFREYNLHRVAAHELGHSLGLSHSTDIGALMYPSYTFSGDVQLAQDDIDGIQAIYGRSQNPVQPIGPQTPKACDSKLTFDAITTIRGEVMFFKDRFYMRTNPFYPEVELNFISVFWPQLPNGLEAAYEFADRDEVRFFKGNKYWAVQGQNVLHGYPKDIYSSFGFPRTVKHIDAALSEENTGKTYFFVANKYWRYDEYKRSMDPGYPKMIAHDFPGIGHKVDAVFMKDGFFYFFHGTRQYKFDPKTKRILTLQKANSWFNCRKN
The experiment is described as follows: biochemical. The conditions noted are these: for IC50: MMP-1 IC50; for inhibition at 1 µM: read-out: MMP-1 % inhibition.

Experiment [2] concerns the target T1, MMP-13. Briefly: In vivo MMP inhibition test procedure (implanted dialysis tubing containing enzyme). The conditions noted are these: p.o. vs MMP-13. Details: species or system rat or mouse.
Description: A 2 cm piece of dialysis tubing (molecular weight cut-off 12-14,000, 10 mm flat width) containing matrix metalloproteinase enzyme (stromelysin, collagenase or gelatinase in 0.5 mL of buffer) is implanted either ip or sc (in the back) of a rat (Sprague-Dawley, 150-200 g) or mouse (CD-1, 25-50 g) under anesthesia. Drugs are administered PO, IP, SC or IV through a canula in the jugular vein. […] Contents of the dialysis tubing is collected and enzyme activity assayed.
Enzyme reaction rates for each dialysis tube are calculated. Tubes from at least 3 different animals are used to calculate the mean±sem. Statistical significance (p<0.05) of vehicle-treated animals versus drug-treated animals is determined by analysis of variance.
The target in the next experiment is TACE (Homo sapiens, UniProt P78536). The experiment is described as follows: TACE inhibition (fluorescent peptidyl substrate). The format is biochemical. The settings on record: for inhibition at 1 µM: at 1 μM concentration, read-out: TACE % inhibition.
Sequence of TACE (P78536 215-824): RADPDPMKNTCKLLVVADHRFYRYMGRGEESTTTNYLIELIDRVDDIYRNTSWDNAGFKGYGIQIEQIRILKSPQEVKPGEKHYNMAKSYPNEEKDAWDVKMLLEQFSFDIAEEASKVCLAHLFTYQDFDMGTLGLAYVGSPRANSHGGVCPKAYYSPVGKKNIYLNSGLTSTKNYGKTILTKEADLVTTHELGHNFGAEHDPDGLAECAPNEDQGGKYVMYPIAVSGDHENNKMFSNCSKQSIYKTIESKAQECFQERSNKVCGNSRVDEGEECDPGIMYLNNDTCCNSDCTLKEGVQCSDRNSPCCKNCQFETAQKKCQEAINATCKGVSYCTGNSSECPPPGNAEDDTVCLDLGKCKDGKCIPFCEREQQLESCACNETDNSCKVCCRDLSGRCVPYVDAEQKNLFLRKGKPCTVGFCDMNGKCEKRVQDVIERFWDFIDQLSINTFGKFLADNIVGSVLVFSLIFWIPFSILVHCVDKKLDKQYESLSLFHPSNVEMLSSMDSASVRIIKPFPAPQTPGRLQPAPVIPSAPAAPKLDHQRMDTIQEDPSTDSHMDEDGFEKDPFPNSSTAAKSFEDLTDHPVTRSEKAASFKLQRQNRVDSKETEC

Sequence of MMP-9 (P14780 94-707): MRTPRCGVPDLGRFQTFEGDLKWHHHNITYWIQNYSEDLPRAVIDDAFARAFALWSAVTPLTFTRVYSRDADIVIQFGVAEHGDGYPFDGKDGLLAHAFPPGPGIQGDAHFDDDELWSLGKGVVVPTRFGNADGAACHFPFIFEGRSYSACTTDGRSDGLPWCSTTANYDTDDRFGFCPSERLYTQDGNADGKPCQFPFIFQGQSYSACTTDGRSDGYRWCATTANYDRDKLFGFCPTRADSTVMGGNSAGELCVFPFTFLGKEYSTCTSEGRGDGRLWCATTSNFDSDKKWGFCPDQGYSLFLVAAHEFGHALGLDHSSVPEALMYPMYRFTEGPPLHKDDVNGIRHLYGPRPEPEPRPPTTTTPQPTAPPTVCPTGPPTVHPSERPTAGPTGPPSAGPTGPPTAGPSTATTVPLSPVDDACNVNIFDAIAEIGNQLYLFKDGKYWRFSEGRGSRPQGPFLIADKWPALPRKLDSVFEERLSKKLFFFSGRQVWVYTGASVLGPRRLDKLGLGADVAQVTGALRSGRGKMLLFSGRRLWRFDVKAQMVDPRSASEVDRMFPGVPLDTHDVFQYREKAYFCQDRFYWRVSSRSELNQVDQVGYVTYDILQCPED
Description for MMP-9: as §1, §2, §3
Description for TACE: Using 96-well black microtiter plates, each well receives a solution composed of 10 μL TACE (final concentration 1 μg/mL), 70 μL Tris buffer, pH 7.4 containing 10% glycerol (final concentration 10 mM), and 10 μL of test compound solution in DMSO (final concentration 1 μl M, DMSO concentration <1%) and incubated for 10 minutes at room temperature.
The reaction is read (excitation 340 nm, emission 420 nm) for 10 min. and the increase in fluorescence over time is plotted as a linear line. The slope of the line is calculated and represents the reaction rate.
The linearity of the reaction rate is confirmed (r^2>0.85). The mean (x±sem) of the control rate is calculated and compared for statistical significance (p<0.05) with drug-treated rates using Dunnett's multiple comparison test.

Turning to `COc1ccc(S(=O)(=O)N(Cc2ccccc2)c2c(C(=O)NO)cnc3c2c(C)nn3-c2ccccc2)cc1` [Example 66, 4-[Benzyl-(4-methoxybenzenesulfonyl)amino]-1-phenyl-3-methyl-1H-pyrazolo[3,4b]pyridine-5-carboxylic acid, hydroxyamide], the IC50 at MMP-9 amounted to 0.00081 µM; on MMP-13 [1] it was 0.00027 µM; at MMP-1, 0.512 µM. Moreover, the “in-vivo MMP % inhibition” value at MMP-13 [2] (dose 25 mg/kg) is on record as 5% (25).

In the case of “4-{[4-(4-Chlorophenyloxy)benzenesulfonyl]methylamino}-3-methylisothiazolo[5,4-b]pyridine-5-carboxylic Acid Hydroxyamide [Example 90]”, the “in-vivo MMP % inhibition” value on MMP-13 [2] (dose 25 mg/kg) is 39% (25).

Take `COc1ccc(S(=O)(=O)N(Cc2ccccc2)c2c(C(=O)NO)cnc3c2cnn3-c2ccccc2)cc1` [Example 62, 4-[Benzyl-(4-methoxybenzenesulfonyl)amino]-1-phenyl-1H-pyrazolo[3,4-b]pyridine-5-carboxylic acid, hydroxyamide]: the values for the IC50 at MMP-9, against MMP-13 [1] and against MMP-1 were 0.0057 µM, 0.023 µM and 1.24 µM, respectively. Also, the inhibition at 1 µM on TACE is 46%.

Turning to `COc1ccc(S(=O)(=O)N(Cc2cccnc2)c2c(C(=O)NO)cnc3cc(C(F)(F)F)ccc23)cc1` [Example 16, 4-[(4-Methoxybenzenesulfonyl)-pyridin-3-ylmethylamino]-7-trifluoromethyl-quinoline-3-carboxylic acid hydroxyamide], the IC50 was determined as 0.006 µM at MMP-9 and 0.003 µM against MMP-13 [1]. Besides, the inhibition at 1 µM at TACE is 36%. Besides, the “in-vivo MMP % inhibition” value on MMP-13 [2] (dose 100 mg/kg) is 64% (100).

Turning to `COc1ccc(S(=O)(=O)N(Cc2cccnc2)c2c(C(=O)NO)cnc3c(OC)cccc23)cc1` [Example 36, 4-[(4-Methoxy-benzenesulfonyl)-pyridin-3-ylmethyl-amino]-8-methoxy-quinoline-3-carboxylic acid hydroxyamide], the results for the IC50 on MMP-9, against MMP-13 [1] and on TACE were 0.002 µM, 0.001 µM and 0.226 µM, respectively. Also, the “in-vivo MMP % inhibition” value on MMP-13 [2] (dose 50 mg/kg) is recorded as 81% (50).

Regarding `COc1ccc(S(=O)(=O)N(Cc2ccccc2)c2c(C(=O)NO)cnc3ccc(Br)cc23)cc1` [Example 13, 4-[Benzyl-(4-methoxy-benzenesulfonyl)-amino]-6-bromo-quinoline-3-carboxylic acid hydroxyamide], the IC50 on MMP-9 came to 0.015 µM; at MMP-13 [1], 0.009 µM; against MMP-1, 0.082 µM. On TACE, the inhibition at 1 µM was determined as 3%.

For the compound `COc1ccc(S(=O)(=O)N(Cc2ccccc2)c2c(C(=O)NO)cnc3c(C(F)(F)F)cccc23)cc1` [Example 12, 4-[Benzyl-(4-methoxy-benzenesulfonyl)-amino]-8-trifluoromethyl-quinoline-3-carboxylic acid hydroxyamide], the IC50 on MMP-9 is 0.002 µM; against MMP-13 [1], 0.001 µM; against MMP-1 it was 0.933 µM; on TACE, 0.19 µM.

Turning to `Cc1ccc(S(=O)(=O)N(Cc2cccnc2)c2c(C(=O)NO)cnc3cc(C(F)(F)F)ccc23)cc1` [Example 44, 4-[Pyridin-3-ylmethyl-(toluene-4-sulfonyl)-amino]-7-trifluoromethyl-quinoline-3-carboxylic acid hydroxyamide], the inhibition at 1 µM at MMP-9 turned out to be 59%; at MMP-13 [1], 73%; at MMP-1 it was 65%; on TACE, 5%.

Consider `COc1ccc(S(=O)(=O)N(Cc2ccccc2)c2c(C(=O)NO)cnc3c2c(C)nn3C)cc1` [Example 52, 4-[Benzyl-(4-methoxybenzenesulfonyl)amino]-1,3-dimethyl-1H-pyrazolo[3,4-b]pyridine-5-carboxylic acid, hydroxyamide], for which the IC50 came out at 0.0024 µM at MMP-9, 0.0014 µM on MMP-13 [1], 0.045 µM on MMP-1 and 0.236 µM against TACE. Further, at MMP-13 [2] (dose 100 mg/kg), the “in-vivo MMP % inhibition” value is on record as 74% (100).

For `CCCCCCCCS(=O)(=O)N(Cc1cccnc1)c1c(C(=O)NO)cnc2cc(C(F)(F)F)ccc12` [Example 43, 4-[(Octane-1-sulfonyl)-pyridin-3-ylmethyl-amino]-7-trifluoromethyl-quinoline-3-carboxylic acid hydroxyamide], the inhibition at 1 µM amounted to 71% at MMP-9, 63% on MMP-13 [1], 43% on MMP-1 and 20% at TACE.

For the compound `COc1ccc(S(=O)(=O)N(Cc2ccccc2)c2c(C(=O)NO)cnc3ccc([N+](=O)[O-])cc23)cc1` [Example 30, 4-[Benzyl-(4-methoxy-benzenesulfonyl)-amino]-6-nitro-quinoline-3-carboxylic acid hydroxyamide], the IC50 at MMP-9 worked out at 0.011 µM; on MMP-13 [1] it was 0.467 µM; against MMP-1, 0.022 µM; on TACE, 0.047 µM.

With `CN(c1c(C(=O)NO)cnc2c1c(-c1ccccc1)nn2C)S(=O)(=O)c1ccc(Oc2ccncc2)cc1` [Example 93, 4-{Methyl-[4-(4-pyridinyloxy)benzenesulfonyl]amino}-1-methyl-3-phenyl-1H-pyrazolo[3,4-b]pyridine-5-carboxylic acid, Hydroxyamide], the IC50 amounted to 0.0101 µM on MMP-9, 0.0039 µM at MMP-13 [1] and 8.79 µM against MMP-1. Besides, the inhibition at 1 µM at TACE stood at 34.9%. In addition, on MMP-13 [2] (dose 25 mg/kg), the “in-vivo MMP % inhibition” value is on record as 49% (25).

In the case of `Cc1noc2ncc(C(=O)NO)c(N(C)S(=O)(=O)c3ccc(Oc4ccncc4)cc3)c12` [Example 94, 4-{Methyl-[4-(4-pyridinyloxy)benzenesulfonyl]amino}-3-methylisoxazolo[5,4-b]pyridine-5-carboxylic acid, Hydroxyamide,], the IC50 on MMP-9 was determined as 0.003 µM; at MMP-13 [1] it was 0.0032 µM; against MMP-1, 2.55 µM. For the same compound, the inhibition at 1 µM at TACE came to 41.6%. Moreover, the “in-vivo MMP % inhibition” value on MMP-13 [2] (dose 25 mg/kg) is 12% (25).

As for `COc1ccc(S(=O)(=O)N(Cc2cccnc2)c2c(C(=O)NO)cnc3onc(C)c23)cc1` [Example 87, 4-[(4-Methoxybenzenesulfonyl)pyridin-3-ylmethylamino]-3-methylisoxazolo[5,4-b]pyridine-5-carboxylic Acid, Hydroxyamide], the IC50 at MMP-9 was 0.0089 µM; against MMP-13 [1], 0.01 µM; on MMP-1, 0.111 µM; against TACE, 0.147 ± 0.005 µM.

Regarding `COc1ccc(S(=O)(=O)N(Cc2cccnc2)c2c(C(=O)NO)cnc3c(Cc4ccccc4)cccc23)cc1` [Example 38, 4-[(4-methoxy-benzenesulfonyl)-pyridin-3-ylmethylamino]-8-Benzyl-quinoline-3-carboxylic acid hydroxyamide], the IC50 on MMP-9 was 0.004 µM; at MMP-13 [1] it was 0.003 µM; against MMP-1, 0.1 µM; on TACE it was 0.336 µM.

`COc1ccc(S(=O)(=O)N(Cc2cccnc2)c2c(C(=O)NO)cnc3c(Br)cccc23)cc1` [Example 37, 4-[(4-Methoxy-benzenesulfonyl)-pyridin-3-ylmethyl-amino]-8-bromo-quinoline-3-carboxylic acid hydroxyamide]: the IC50 on MMP-9 came to 0.002 µM; on MMP-13 [1], 0.001 µM; against MMP-1, 0.065 µM; at TACE, 0.124 µM.
